IC50 data for 27 compounds are collected here from US10173991B2, “Sulfone amide linked benzothiazole inhibitors of endothelial lipase” (BRISTOL-MYERS SQUIBB COMPANY, priority 2014, dated 2019).

The target in this test is Endothelial lipase (EL) (Homo sapiens (Human), UniProt Q9Y5X9). Kind of test: Endothelial lipase (EL) enzymatic assay with fluorescent substrate A10070 in DMPG vesicles. In kind it is biochemical. A digest of the protocol: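 EL from conditioned medium of HT-1080 cells engineered to overexpress endogenous EL; HL partially purified from conditioned medium of HL-overexpressing COS cells. Enzyme preincubated with compound 30 min at 37° C in 50 mM HEPES pH 8.0, 50 mM NaCl, 1 mM CaCl2; DMPG vesicles carrying FRET substrate (0.11 mole fraction) then added.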
Endothelial lipase (EL), sequence (Q9Y5X9 21-500): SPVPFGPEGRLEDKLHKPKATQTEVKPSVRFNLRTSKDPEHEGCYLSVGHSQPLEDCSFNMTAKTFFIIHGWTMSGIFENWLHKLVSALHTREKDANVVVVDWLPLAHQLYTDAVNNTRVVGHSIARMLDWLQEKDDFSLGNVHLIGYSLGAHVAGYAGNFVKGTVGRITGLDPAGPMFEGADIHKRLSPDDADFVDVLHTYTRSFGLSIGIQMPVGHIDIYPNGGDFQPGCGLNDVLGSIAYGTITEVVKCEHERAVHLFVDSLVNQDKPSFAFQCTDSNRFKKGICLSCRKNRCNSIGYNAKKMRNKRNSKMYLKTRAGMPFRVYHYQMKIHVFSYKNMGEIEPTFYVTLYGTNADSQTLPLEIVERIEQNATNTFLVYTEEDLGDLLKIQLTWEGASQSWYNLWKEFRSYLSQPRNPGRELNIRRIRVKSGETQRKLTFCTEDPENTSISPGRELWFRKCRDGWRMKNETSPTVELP
`COCCS(=O)(=O)C(C(=O)NCC(=O)NC1CC1)c1nc2cc(F)c(-c3ccc(-n4ncc(C(N)=O)c4N)cc3)cc2s1` (stereo not drawn) [Example 586, 5-amino-1-{4-[2-({[(cyclopropyl-carbamoyl)methyl]carbamoyl}(2-methoxyethane-sulfonyl)methyl)-5-fluoro-1,3-benzothiazol-6-yl]phenyl}-1H-pyrazole-4-carboxamide] had an IC50 of 1 nM. `CC(C)S(=O)(=O)C(C(=O)NCC(=O)NC1CC1)c1nc2cc(F)c(-c3ccc(NC(=O)OCc4ccccc4)cc3)cc2s1` (stereo not drawn) [Example 38, benzyl N-{4-[2-({[(cyclopropyl-carbamoyl)methyl]carbamoyl} (propane-2-sulfonyl)methyl)-5-fluoro-1,3-benzothiazol-6-yl]phenyl} carbamate] gave an IC50 of 2 nM. Turning to `Cc1ccc(-c2cc3sc(C(C(=O)NCC(=O)NC4CC4)S(=O)(=O)C(C)C)nc3cc2F)cn1` (stereo not drawn) [Example 246, N-[(cyclopropyl-carbamoyl)methyl]-2-[5-fluoro-6-(6-methylpyridin-3-yl)-1,3-benzothiazol-2-yl]-2-(propane-2-sulfonyl)acetamide], the IC50 came to 12 nM.

In turn, `CC(C)S(=O)(=O)C(C(=O)NCC(=O)NC1CC1)c1nc2cc(F)c(-c3ccc(NC(=O)OCC4CC4)cc3)cc2s1` (stereo not drawn) [Example 528] yielded an IC50 of 1 nM. As for `COCCS(=O)(=O)C(C(=O)NCC(=O)NC1CC1)c1nc2cc(F)c(-c3ccc(NC(=O)CCc4ccccc4)cc3)cc2s1` (stereo not drawn) [Example 577, N-{4-[2-({[(cyclopropyl-carbamoyl)methyl]carbamoyl}(2-methoxyethane-sulfonyl)methyl)-5-fluoro-1,3-benzothiazol-6-yl]phenyl}-3-phenyl-propanamide], the figure is 1 nM; as for `COCCS(=O)(=O)C(C(=O)NCC(=O)NCCOC(C)C)c1nc2cc(-c3cnnc(C)c3)c(F)cc2s1` (stereo not drawn) [Example 358, 2-[6-fluoro-5-(6-methylpyridazin-4-yl)-1,3-benzothiazol-2-yl]-2-(2-methoxyethane-sulfonyl)-N-({[2-(propan-2-yloxy)ethyl]carbamoyl}methyl)acetamide], 60 nM. In the case of `CC(C)n1cc(-c2cc3sc(C(C(=O)NCC(=O)NC4CC4)S(C)(=O)=O)nc3cc2F)ccc1=O` (stereo not drawn) [Example 195, N-[(cyclopropyl-carbamoyl)methyl]-2-{5-fluoro-6-[6-oxo-1-(propan-2-yl)-1,6-dihydropyridin-3-yl]-1,3-benzothiazol-2-yl}-2-methanesulfonyl-acetamide] it was 23 nM; in that of `CC(C)S(=O)(=O)C(C(=O)NCC(=O)NC1CC1)c1nc2cc(-c3ccc4[nH]c(=O)ccc4c3)c(F)cc2s1` (stereo not drawn) [Example 270, N-[(cyclopropyl-carbamoyl)methyl]-2-[6-fluoro-5-(2-oxo-1,2-dihydroquinolin-6-yl)-1,3-benzothiazol-2-yl]-2-(propane-2-sulfonyl)acetamide], 9 nM; in that of `COCCS(=O)(=O)C(C(=O)NCC(=O)NC1CC1)c1nc2cc(F)c(-c3ccc4c(c3)OCCN4C(=O)OCc3ccccc3)cc2s1` (stereo not drawn) [Example 419, benzyl 7-[2-({[(cyclopropyl-carbamoyl)methyl]carbamoyl}(2-methoxyethane-sulfonyl)methyl)-5-fluoro-1,3-benzothiazol-6-yl}-3,4-dihydro-2H-1,4-benzoxazine-4-carboxylate], 9 nM. In turn, `CC(C)S(=O)(=O)C(C(=O)NCC(=O)NC1CC1)c1nc2cc(F)c(-c3ccc4[nH]c(=O)ccc4c3)cc2s1` (stereo not drawn) [Example 234, N-[(cyclopropyl-carbamoyl)methyl]-2-[5-fluoro-6-(2-oxo-1,2-dihydroquinolin-6-yl)-1,3-benzothiazol-2-yl]-2-(propane-2-sulfonyl) acetamide] had an IC50 of 6 nM. On to `COCCS(=O)(=O)C(C(=O)NCC(=O)NC1CC1)c1nc2ccc(-c3ccnc(F)c3)cc2s1` (stereo not drawn) [Example 311, N-[(cyclopropyl-carbamoyl)methyl]-2-[6-(2-fluoropyridin-4-yl)-1,3-benzothiazol-2-yl]-2-(2-methoxyethane-sulfonyl)acetamide], for which the IC50 amounted to 94 nM.

Take `CC(C)c1ccc(-c2cc3nc(C(C(=O)NCC(=O)NC4CC4)S(=O)(=O)C(C)C)sc3cc2F)cn1` (stereo not drawn) [Example 265, N-[(cyclopropyl-carbamoyl)methyl]-2-{6-fluoro-5-[6-(propan-2-yl)pyridin-3-yl]-1,3-benzothiazol-2-yl}-2-(propane-2-sulfonyl)acetamide]: the IC50 came to 4 nM. As for `CS(=O)(=O)C(C(=O)NCC(=O)NC1CC1)c1nc2cc(F)c(-c3cccc(C(N)=O)c3)cc2s1` (stereo not drawn) [Example 327, 3-[2-({[(cyclopropyl-carbamoyl)methyl]carbamoyl} (methanesulfonyl)methyl)-5-fluoro-1,3-benzothiazol-6-yl]benzamide], it took 19 nM to reach half-maximal inhibition (IC50).

With `COCCNC(=O)c1ccc(-c2cc(F)c3nc(C(C(=O)NCC(=O)NC4CC4)S(=O)(=O)CCOC)sc3c2)cc1` (stereo not drawn) [Example 218, 4-[2-({[(cyclopropyl-carbamoyl)methyl]carbamoyl}(2-methoxyethane-sulfonyl)methyl)-4-fluoro-1,3-benzothiazol-6-yl]-N-(2-methoxyethyl) benzamide], the IC50 was determined as 28 nM. Take `Cc1cc2nc(C(C(=O)NCC(=O)NC3CC3)S(=O)(=O)C(C)C)sc2cc1-c1ccc(NC(=O)OCc2ccccc2)cc1` (stereo not drawn) [Example 285, benzyl N-{4-[2-({[(cyclopropyl-carbamoyl)methyl]carbamoyl} (propane-2-sulfonyl)methyl)-5-methyl-1,3-benzothiazol-6-yl]phenyl}carbamate]: the IC50 is 12 nM.

`Cc1cc(-c2cc(F)c3nc(C(C(=O)NCC(=O)NC4CC4)S(=O)(=O)N(C)C)sc3c2)cnn1` (stereo not drawn) [Example 490, N-[(cyclopropyl-carbamoyl)methyl]-2-(dimethyl-sulfamoyl)-2-[4-fluoro-6-(6-methypylridazin-4-yl)-1,3-benzothiazol-2-yl]acetamide] had an IC50 of 207 nM. As to `COC(=O)Nc1cccc(-c2cc(F)c3nc(C(C(=O)NCC(=O)NC4CC4)S(=O)(=O)C(C)C)sc3c2)c1` (stereo not drawn) [Example 280, methyl N-{3-[2-({[(cyclopropyl-carbamoyl)methyl]carbamoyl} (propane-2-sulfonyl)methyl)-4-fluoro-1,3-benzothiazol-6-yl]phenyl}carbamate], 6 nM corresponded to half-maximal inhibition (IC50).

For `COCCS(=O)(=O)C(C(=O)NCC(=O)NC1CC1)c1nc2cc(F)c(-c3cccc(C(=O)N(C)C)c3)cc2s1` (stereo not drawn) [Example 177, 3-[2-({[(cyclopropyl-carbamoyl)methyl]carbamoyl}(2-methoxyethane-sulfonyl)methyl)-5-fluoro-1,3-benzothiazol-6-yl]-N,N-dimethyl-benzamide], the IC50 turned out to be 51 nM. As for `O=C(CNC(=O)C(c1nc2cc(-c3ccc(F)nc3)ccc2s1)S(=O)(=O)Cc1ccccc1)NC1CC1` (stereo not drawn) [Example 14, N-[(cyclopropyl-carbamoyl)methyl]-2-[5-(6-fluoropyridin-3-yl)-1,3-benzothiazol-2-yl]-2-phenylmethane-sulfonylacetamide], the figure is 23 nM; as for `Cn1ccc2cc(-c3cc4sc(C(C(=O)NCC(=O)NC5CC5)S(C)(=O)=O)nc4cc3F)ccc2c1=O` (stereo not drawn) [Example 193, N-[(cyclopropyl-carbamoyl)methyl]-2-[5-fluoro-6-(2-methyl-1-oxo-1,2-dihydro-isoquinolin-6-yl)-1,3-benzothiazol-2-yl]-2-methanesulfonyl-acetamide], 5 nM. In turn, `CC(C)S(=O)(=O)C(C(=O)NCC(=O)NC1CC1)c1nc2cc(F)c(-c3ccc4c(=O)n(C)ccc4c3)cc2s1` (stereo not drawn) [Example 242, N-[(cyclopropyl-carbamoyl)methyl]-2-[5-fluoro-6-(2-methyl-1-oxo-1,2-dihydro-isoquinolin-6-yl)-1,3-benzothiazol-2-yl]-2-(propane-2-sulfonyl) acetamide] displayed a 50% inhibitory concentration (IC50) of 4 nM. As for `CC(=O)NCc1ccc(-c2cc3sc(C(C(=O)NCC(=O)NC4CC4)S(=O)(=O)c4ccc(F)c(F)c4)nc3cc2F)cc1` (stereo not drawn) [Example 442, N-[(cyclopropyl-carbamoyl)methyl]-2-(3,4-difluorobenzene-sulfonyl)-2-{6-[4-(acetamidomethyl)phenyl]-5-fluoro-1,3-benzothiazol-2-yl}acetamide], the figure is 10 nM; as for `COCCS(=O)(=O)C(C(=O)NCC(=O)NC1CC1)c1nc2cc(C(F)(F)F)c(-c3ccc(=O)n(C(C)C)c3)cc2s1` (stereo not drawn) [Example 188, N-[(cyclopropyl-carbamoyl)methyl]-2-(2-methoxyethane-sulfonyl)-2-{6-[6-oxo-1-(propan-2-yl)-1,6-dihydropyridin-3-yl]-5-(trifluoromethyl)-1,3-benzothiazol-2-yl}acetamide], 37 nM. With `COC(=O)Nc1ccc(-c2cc3sc(C(C(=O)NCC(=O)NC4CC4)S(=O)(=O)CC4CC4)nc3cc2F)cc1` (stereo not drawn) [Example 2, methyl N-{4-[2-({[(cyclopropyl-carbamoyl)methyl]carbamoyl} (cyclopropyl-methanesulfonyl)methyl)-5-fluoro-1,3-benzothiazol-6-yl]phenyl} carbamate], the IC50 was determined as 3 nM. On to `COCCS(=O)(=O)C(C(=O)NCC(=O)NC1CC1)c1nc2cc(-c3ccc(F)nc3C)ccc2s1` (stereo not drawn) [Example 88, N-[(cyclopropyl-carbamoyl)methyl]-2-[5-(6-fluoro-2-methylpyridin-3-yl)-1,3-benzothiazol-2-yl]-2-(2-methoxyethane-sulfonyl) acetamide], for which the IC50 was found to be 82 nM.

As to `O=C(CNC(=O)C(c1nc2cc(F)c(-c3ccc(NC(=O)OCc4ccccc4)cc3)cc2s1)S(=O)(=O)CC1CC1)NC1CC1` (stereo not drawn) [Example 51, benzyl N-{4-[2-({[(cyclopropyl-carbamoyl)methyl]carbamoyl} (cyclopropyl-methanesulfonyl)methyl)-5-fluoro-1,3-benzothiazol-6-yl]phenyl} carbamate], half-maximal inhibition (IC50) was put at 3 nM. For `COCCS(=O)(=O)C(C(=O)NCC(=O)NC1(C)CC1)c1nc2ccc(-c3ccc(F)nc3)cc2s1` (stereo not drawn) [Example 381, 2-[6-(6-fluoropyridin-3-yl)-1,3-benzothiazol-2-yl]-2-(2-methoxyethane-sulfonyl)-N-{[(1-methylcyclopropyl)carbamoyl]methyl} acetamide], the IC50 stood at 15 nM.

What is called IC50 is the midpoint of a concentration-inhibition curve. Low readings indicate higher potency, high ones lower potency.
